{"source": "patent US20070231334A1", "about": "(priority 2004, published 2007)", "molecules": {"B1": {"name": "thermolysin: thermolysin (EC 3.4.24.27) from Bacillus thermoproteolyticus (protein, UniProt P00800 233-548, looked up)", "Thermolysin": "ITGTSTVGVGRGVLGDQKNINTTYSTYYYLQDNTRGNGIFTYDAKYRTTLPGSLWADADNQFFASYDAPAVDAHYYAGVTYDYYKNVHNRLSYDGNNAAIRSSVHYSQGYNNAFWNGSQMVYGDGDGQTFIPLSGGIDVVAHELTHAVTDYTAGLIYQNESGAINEAISDIFGTLVEFYANKNPDWEIGEDVYTPGISGDSLRSMSDPAKYGDPDHYSKRYTGTQDNGGVHINSGIINKAAYLISQGGTHYGVSVVGIGRDKLGKIFYRALTQYLTPTSNFSQLRAAAVQSATDLYGSTSQEVASVKQAFDAVGVK"}, "B2": {"name": "SBTI (protein, UniProt P01070 25-205, looked up)", "Trypsin inhibitor A": "DFVLDNEGNPLENGGTYYILSDITAFGGIRAAPTGNERCPLTVVQSRNELDKGIGTIISSPYRIRFIAEGHPLSLKFDSFAVIMLCVGIPTEWSVVEDLPEGPAVKIGENKDAMDGWFRLERVSDDEFNNYKLVFCPQQAEDDKCGDIGISIDHDDGTRRLVVSKNKPLVVQFQKLDKESL"}}, "key": {"[1]": {"test_system": "hemorrhagic activity of B. anthracis culture supernatant (BACS)", "parameters": "species or system B. anthracis (delta Ames)", "conditions": "in vivo, sc"}, "[2]": {"test_system": "B. anthracis (Sterne)", "parameters": "species or system Bacillus anthracis", "conditions": "in vivo"}, "[3]": {"test_system": "BACS proteolytic activity", "type": "biochemical, B. anthracis"}, "[4]": {"conditions": "mouse, in vivo"}}, "note": "Entries after “also recorded” stand apart in the source; their conditions may differ. Read-outs that look alike come from different tables or passages of the source."}
{"molecule": "O=C(O)CN(CCN(CC(=O)O)CC(=O)O)CC(=O)O", "note": "[EDTA, ethylenediaminetetraacetic acid]", "values": [{"measurement": "suppression of hemorrhagic effect of BACS", "setting": "[1]", "result": "effectively abrogated"}]}
{"molecule": "CC[C@@H](C)[C@@H](O)[C@H](C)C(=O)[C@H](C)/C=C(\\C)C[C@H](C)[C@@H]1OC(=O)[C@H]1CC", "note": "[ebelactone B]", "values": [{"measurement": "effect on survival / protection", "setting": "[2]", "result": "did not increase survival over the effects of doxycycline alone"}]}
{"molecule": "CC(C)C[C@H](NP(=O)(O)O[C@@H]1O[C@@H](C)[C@H](O)[C@@H](O)[C@H]1O)C(=O)N[C@@H](Cc1c[nH]c2ccccc12)C(=O)O", "note": "[phosphoramidon]", "values": [{"measurement": "suppression of hemorrhagic effect of BACS", "setting": "[1]", "result": "effective; also recorded: effectively abrogated"}, {"measurement": "inhibition of hydrolysis of gelatin and casein by BACS", "setting": "[3]", "result": "inhibited"}]}
{"molecule": "c1cnc2c(c1)ccc1cccnc12", "note": "[phenanthroline, 1,10-phenanthroline]", "values": [{"measurement": "inhibition of hydrolysis of gelatin and casein by BACS", "setting": "[3]", "result": "inhibited"}]}
{"molecule": "C[C@H]1c2cccc(O)c2C(=O)C2=C(O)[C@]3(O)C(=O)C(C(N)=O)=C(O)[C@@H](N(C)C)[C@@H]3[C@@H](O)[C@@H]21", "note": "[doxycycline]", "values": [{"measurement": "survival", "setting": "[2]; ip", "result": 30, "unit": "%"}]}
{"molecule": "O=C(O)c1cn(C2CC2)c2cc(N3CCNCC3)c(F)cc2c1=O", "note": "[ciprofloxacin]", "values": [{"measurement": "effectiveness of treatment", "setting": "[2]", "result": "ineffective"}, {"measurement": "survival", "setting": "[2]", "result": 20, "unit": "%"}, {"measurement": "survival (effectiveness)", "setting": "[2]", "result": 70, "unit": "%"}, {"measurement": "survival", "setting": "[2]; ip", "result": 20, "unit": "%"}]}
{"molecule": "B1", "values": [{"measurement": "dose range in which hemorrhagic activity was detectable", "setting": "[4]", "result": "10 to 100", "unit": "µg"}]}
{"molecule": "B2", "values": [{"measurement": "suppression of hemorrhagic effect of BACS", "setting": "[1]", "result": "effectively abrogated"}]}
